The record followed here is patent US12721838B2 (Henry Ford Health System, priority 2020, dated 2026).

The subject of one assay is Trib2-OE cells. Kind of assay: Enzalutamide sensitivity of Trib2-overexpressing prostate cancer cells. The conditions noted are these: clinically relevant doses. In kind it is cell-based, human. The source says:
Prostate cancer cells were transfected with full length human gene to overexpress Trib2 (FIG. 18). […] Trib2 siRNA was used in parallel experiments as a positive control.

The target in another assay is T1, TRIB2 (Homo sapiens, UniProt Q92519).
T1 sequence (Q92519 1-343): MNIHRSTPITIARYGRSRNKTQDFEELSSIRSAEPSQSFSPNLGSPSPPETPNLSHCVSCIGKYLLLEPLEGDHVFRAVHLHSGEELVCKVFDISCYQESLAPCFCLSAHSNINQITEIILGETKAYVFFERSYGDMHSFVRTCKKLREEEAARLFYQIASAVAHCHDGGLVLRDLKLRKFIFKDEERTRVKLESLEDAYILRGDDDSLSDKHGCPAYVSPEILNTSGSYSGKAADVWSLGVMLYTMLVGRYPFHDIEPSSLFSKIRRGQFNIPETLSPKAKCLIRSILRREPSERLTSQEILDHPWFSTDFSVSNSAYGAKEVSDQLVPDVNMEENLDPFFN
Put plainly: Western blot of TRIB2 protein levels in cancer cells. It counts as cell-based. Further details: Whole cell lysate proteins were analyzed by Western blot; endogenous in cells; host or cells: LNCaP-ENR (enzalutamide-resistant LNCaP) cells. The conditions noted are these: LNCaP-ENR cells, 10 μM, 24 hours, Western blot. As for the experimental part:
Enzalutamide-resistant prostate cancer (ERPC) cells (LNCaP-ENR cells) were plated and treated with 10 μM each of various compounds for 24 hours. Exemplary methods for developing and using LNCaP-ENR cells is disclosed in Monga, J., Subramani, D., Bharathan, A., and Ghosh, J. (2020) “Pharmacological and genetic targeting of 5-lipoxygenase interrupts c-Myc oncogenic signaling and kills enzalutamide-resistant prostate cancer cells via apoptosis.” Scientific Reports 10: 6649, the disclosure of which is incorporated herein by reference in its entirety. Whole cell lysate proteins were analyzed by Western blot. TRIB2 antibody was used to detect protein levels of TRIB2 and GAPDH was used as loading control. Monoclonal anti-Trib2 antibody was purchased from Santa Cruz Biotech, Santa Cruz, CA.
LNCaP-ENR cells were treated with varying doses (4 μM, 8 μM, or 12 μM) of DCV for 24 hours. Effects on TRIB2 protein levels and its downstream targets (e.g., pAkt, Bcl-xL, Survivin, and FOXO3) were analyzed by Western blot. GAPDH was used as loading control. Protein levels of TRIB2, pAKT (S473), Bcl-xL, and Survivin were reduced in cells treated with 12 μM of DCV compared to control-treated cells (FIG. 3A). Levels of FOXO3 protein were increased at 12 μM of DCV treatment compared to control treatment. This was expected, as FOXO3 level is known to be decreased by Trib2. These effects on cellular protein levels were DCV concentration-dependent, with the most pronounced effects observed at the highest concentration tested (12 μM).

Assay [1] concerns the target T2, Trib2-Luciferase (Luc-Trib2) fusion (Homo sapiens, UniProt Q92519).
T2 sequence (Q92519 with tags, fused parts or gaps): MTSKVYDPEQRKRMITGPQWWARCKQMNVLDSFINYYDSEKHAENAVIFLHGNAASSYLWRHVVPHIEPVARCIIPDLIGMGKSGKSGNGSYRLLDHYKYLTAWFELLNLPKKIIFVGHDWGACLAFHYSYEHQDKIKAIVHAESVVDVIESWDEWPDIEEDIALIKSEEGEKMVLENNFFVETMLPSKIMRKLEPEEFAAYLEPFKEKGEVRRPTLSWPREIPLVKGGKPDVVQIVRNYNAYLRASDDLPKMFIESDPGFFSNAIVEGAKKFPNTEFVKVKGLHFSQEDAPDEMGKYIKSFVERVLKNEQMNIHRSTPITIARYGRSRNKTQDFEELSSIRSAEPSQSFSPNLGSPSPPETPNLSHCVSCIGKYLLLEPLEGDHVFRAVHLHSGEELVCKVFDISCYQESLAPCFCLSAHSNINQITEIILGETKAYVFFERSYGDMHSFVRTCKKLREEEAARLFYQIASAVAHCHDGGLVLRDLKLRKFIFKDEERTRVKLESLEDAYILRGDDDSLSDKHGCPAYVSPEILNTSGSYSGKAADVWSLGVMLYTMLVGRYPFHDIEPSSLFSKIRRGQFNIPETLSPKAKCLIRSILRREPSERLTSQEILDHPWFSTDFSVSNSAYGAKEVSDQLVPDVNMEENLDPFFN
The conditions noted are these: 10 μM, 24 hours, HFF-Trib2-Luc cells.

In assay [2] the test system is LNCaP-ENR and MR49F ERPC cells. Put plainly: In vitro invasion through extracellular matrix. In kind it is cell-based, human. The note with it: LNCaP-ENR and MR49F ERPC cells (data not shown).
Assay [3] concerns LNCaP-ENR cells. Put plainly: MTS/PES cell viability assay, ERPC cells. It counts as cell-based, human. The note with it: LNCaP-ENR cells, varying doses, 72 hours, MTS/PES; listed as ledipasvir. The protocol: Plates were incubated for 72 hours at 37° C. in a CO2 incubator. Cell viability was measured by MTS/PES cell titer assay (Promega Corp., Madison, WI).
For assay [4], the system named is LNCaP-ENR cells. Put plainly: Apoptosis by Annexin V binding, flow cytometry. It counts as cell-based, human. The protocol: To test DCV effects on cancer cell apoptosis, LNCaP-ENR cells were treated with 8 μM DCV for 24 hours and analyzed by flow cytometry. Treatment with DCV indicated increased Annexin V binding, a read-out for apoptosis (FIG. 3C).
The test system of assay [5] is LNCaP-ENR cells. Kind of assay: Soft-agar colony formation assay. The conditions noted are these: LNCaP-ENR (ERPC) cells, three weeks; DCV at 8 μM. In kind it is cell-based, human. As for the experimental part: Effect of DCV on soft-agar colony formation was also analyzed. LNCaP-ENR cells (10,000 per well in 6-well plates) were plated in 0.3% soft-agar on top of a base layer of 0.6% agar. The cells were treated with DCV and incubated at 37° C. for three weeks in the CO2 incubator. Cells were given fresh media and drug every fourth day. At the end of the incubation period, colonies were stained with 0.025% crystal violet, and pictures of colonies were taken with a Nikon digital camera at ×200. Image processing was done using Q-Capture Pro-7 software. Exemplary methods of the foregoing technique can be found in Sarveswaran, Sivalokanathan et al. “Inhibition of 5-lipoxygenase downregulates stemness and kills prostate cancer stem cells by triggering apoptosis via activation of c-Jun N-terminal kinase.” Oncotarget vol. 10, 4 424-436. 11 Jan. 2019, the disclosure of which is incorporated herein by reference in its entirety.

The target of assay [6] is T2, Trib2-Luciferase (Luc-Trib2) fusion. Put plainly: cell-based. The conditions noted are these: HFF, read-out: Luciferase activity (%).

“Also recorded” adds a separate entry of the source. Read-outs that look alike come from different tables or passages of the source. Where a SMILES comes first, the peptide text is derived from it. The star is where a group is joined. Cbz = O=C(OCc1ccccc1)*; CH2F = FC*

For the compound `CNC(=O)c1ccc(N2C(=S)N(c3ccc(C#N)c(C(F)(F)F)c3)C(=O)C2(C)C)cc1F` [enzalutamide], in the assay on Trib2-OE cells, the “response of Trib2-OE cells to enzalutamide” value is given as “completely resistant”.
For the compound `COC(=O)N[C@H](C(=O)N1CC2(CC2)C[C@H]1c1nc(-c2ccc3c(c2)C(F)(F)c2cc(-c4ccc5[nH]c([C@@H]6[C@H]7CC[C@H](C7)N6C(=O)[C@@H](NC(=O)OC)C(C)C)nc5c4)ccc2-3)c[nH]1)C(C)C` [Ledipasvir], the TRIB2 protein levels result at TRIB2 is recorded as “neither downregulates TRIB2”. The “inhibition of Trib2-luciferase activity (in words)” value in assay [1] is given as “completely ineffective”; in assay [1] (listed as ledipasvir), “no inhibition; also recorded: not effective”. Moreover, the “in vitro invasion through extracellular matrix” value in assay [2] is “completely ineffective”. The Cell viability entry with LNCaP-ENR cells [3] is “not”. The “signs of apoptotic features” value in the assay with LNCaP-ENR cells [4] (ERPC cells) is “did not show any signs of apoptotic features”. Also, in the assay with LNCaP-ENR cells [5], the soft-agar colony formation result was “completely ineffective”. The activity at 10 µM in assay [6] was 100%.
With `COC(=O)C[C@H](NC(=O)[C@H](C)NC(=O)[C@@H](NC(=O)OCc1ccccc1)C(C)C)C(=O)CF` [Z-VAD-FMK] (Cbz-Val-Ala-Asp(OMe)-CH2F), the “DCV treatment-induced apoptosis after pretreatment with caspase inhibitor” value with LNCaP-ENR cells [4] (ERPC cells pretreated) is reported as “inhibited”.
